Experimental data: ChEMBL document CHEMBL3507680, “University of Dundee, Gates Library screen for HepG2 cell viability”

Assay: Human HepG2 cell viability assay in 384 well format
Assay type: toxicity, cell-based
Design: dose 125 nL, time 70.5 hour; concentration not given beside the values
Conditions: HepG2 cells, read-out: Inhibition

In order of falling cytotoxicity at 70.5 h:
1. CN(C)C(=O)NCc1cc2n(n1)CCCN(CC1CCCNC1)C2 (stereo not drawn)  29.9%
2. Cc1ncsc1CNc1cc(N2CCCC2CO)ncn1 (stereo not drawn)  26.9%
3. FC(F)(F)c1cc(NCCCn2cccn2)nc(-c2cccnc2)n1  22.2%
4. Cc1nc(CCC(=O)NC2CCC2)cc(C2CCNCC2)n1  21.9%
5. FC1(F)CCN(Cc2ccccn2)CC12CCN(c1cccnc1)C2 (stereo not drawn)  21.6%
6. COc1ccc(Cl)cc1CNC(=O)CN1CCC2(CCOC2)C1 (stereo not drawn)  20%
7. CN(CC(O)COc1ccc(C(F)(F)F)cc1)C(=O)Nc1nncs1 (stereo not drawn)  19.7%
8. CC1CCN(Cn2nc(-c3ccc(F)cc3)oc2=O)CC1  18.6%
9. CC[C@@H]1N(Cc2ccc(OC)cc2)CCC[C@]12CCC(=O)N2CCOC  16.8%
10. CCN(CC)C(=O)NC(C)c1ccc(Oc2cccnc2)c(F)c1 (stereo not drawn)  16%
11. CCC(=O)Nc1ncn(Cc2cccnc2)n1  15.8%
12. CCc1nnc2n1CCN(Cc1csc(Cc3ccccc3)n1)C2  15.5%
13. Cc1cc(C(=O)N2C[C@H](CO)C[C@H](CN3CCOCC3)C2)cnc1C  14.5%
14. Cc1cc(OCC(=O)N2CCCC(c3nc(C)c(C)s3)C2)no1 (stereo not drawn)  11.5%
15. COc1cc(C2CC(=O)Oc3cc(C)[nH]c(=O)c32)ccc1OC(F)F (stereo not drawn)  10.5%
16. CC(NCCn1cccn1)c1ccccc1Cl (stereo not drawn)  10.3%
17. CCOc1ccc(CNC2CCCN(c3cccnn3)C2)cc1OC (stereo not drawn)  4.96%
18. CNC(=O)N1CCC2(CC1)C(=O)N(C)c1c(F)cccc12  4.07%
19. COc1cc(CN(C)C(=O)Cc2c(C)nn(C)c2C)ccc1OC(F)F  3.07%
20. Cc1ccc(C)c(CNC(=O)NC(C)(C(=O)O)c2ccco2)c1 (stereo not drawn)  2.89%
21. O=S(=O)(CC1CCCO1)Nc1cc(Cl)ccc1-n1cccn1 (stereo not drawn)  2.79%
22. CCOc1ccc(S(=O)(=O)NC(=O)c2c(C)noc2C(C)C)cc1  1.8%
23. CCN1CCC(c2cncc(N(C)C)n2)CC1  1.63%
24. COc1ccc2c(c1)CC(NCCCn1cc(C)cn1)CC2 (stereo not drawn)  1.45%
25. CC(C)n1cnnc1CN(C)C(=O)c1ccccc1-n1cncn1  0.803%
26. CN1CC(=O)N(c2cnn(C)c2)CC12CCN(Cc1cccnc1)C2 (stereo not drawn)  0.303%
27. CC(=O)N[C@@H]1CN(C(=O)c2ccc[nH]2)C[C@H]1c1ccc(C)o1  0.0626%
28. CC(C)(C)c1nc(CNC2CCCN(c3cccnn3)C2)no1 (stereo not drawn)  -0.0267%
29. CC1CCN(c2ncc3c(n2)CN(Cc2cccc(F)c2)C3=O)CC1  -0.149%
30. Cc1cc(S(=O)(=O)NCc2cccc(C(=O)N3CCCC3)c2)c(C)s1  -0.781%
31. Cc1cccc(N2CCN(C(=O)c3c(C)nn(C)c3C)CC2)c1C  -0.882%
32. FC(F)(F)Cn1ccnc1CN1CCCC1c1noc(C2CC2)n1 (stereo not drawn)  -0.904%
33. CNC(=O)NC(=O)CCSc1ccccc1Cl  -1.01%
34. N#Cc1cccc(CN2CCO[C@@H]3CNC[C@@H]32)c1  -1.26%
35. O=C1COc2cc(C(=O)N3CCCC(n4ccnc4)C3)ccc2N1 (stereo not drawn)  -1.66%
36. O=C(N1CCOCC1)N1CC[C@@](O)(c2ccccc2)[C@H]2CCCC[C@@H]21  -1.75%
37. CC(=O)N1CCCN(C(=O)NCCc2ccc(Cl)s2)CC1  -1.97%
38. CCC(=O)NCc1ccc(N2CCCCC2)cc1  -2.28%
39. Cc1nn(C)cc1-c1cc(C(=O)N2CCc3ncc(Cl)cc3C2)on1  -2.35%
40. CC(C)NC(=O)[C@H]1CCS(=O)(=O)[C@@H]2CN(c3ncc(F)cn3)C[C@H]12  -2.87%
41. Cc1cc(Nc2cnccn2)cc(C2CCCNC2)n1 (stereo not drawn)  -2.88%
42. Cc1noc(C)c1-c1cc(CCC2CN(C(=O)CN)CCO2)ncn1 (stereo not drawn)  -2.94%
43. O=C(O)c1nnn(-c2cccc(C(F)(F)F)c2)c1C1CC1  -3.12%
44. CNC(=O)CCS(=O)(=O)Cc1cc(Cl)c2c(c1)OCCCO2  -3.42%
45. CC(C)CN1C(=O)CC[C@H]2CN(Cc3ncc[nH]3)CC[C@H]21  -3.44%
46. Cc1ccc(CNC(=O)CN(CCC(N)=O)c2ccc(F)cc2)cc1  -3.51%
47. CCn1cc(CN2CCCN(C(=O)CCN3CCCC3=O)CC2)cn1  -3.66%
48. CCCc1nc(C[S+]([O-])Cc2cn3cccc(C)c3n2)no1 (stereo not drawn)  -3.84%
49. Cc1cc(C(=O)N2CCCC2c2noc(C(C)C)n2)c(C)o1 (stereo not drawn)  -3.94%
50. O=C(O)c1ccc(F)c(S(=O)(=O)N2CCOc3ccccc32)c1  -4.17%
51. CC1(C)CN(CC(F)(F)F)CCN1CC(=O)NC1CCCC1  -4.28%
52. COCCN(C)CCN1CC2(CCN(C3CCCNC3)CC2)OC1=O (stereo not drawn)  -4.32%
53. Cc1cc(C)n(CCN2CCOC(CNc3cccnn3)C2)n1 (stereo not drawn)  -4.33%
54. O=C(O)c1cccc(CN2CCCC(c3ccn[nH]3)C2)c1 (stereo not drawn)  -4.41%
55. Cc1cc(C(=O)N2CC[C@H]3C[C@H](c4ccncn4)O[C@@H]3C2)c(C)[nH]1  -4.78%
56. CN1CCN(Cc2cnc(S(=O)(=O)CC3CC3)n2CC2CCCO2)CC1 (stereo not drawn)  -4.87%
57. O=C(Nc1cnccn1)[C@H]1COC[C@H]2CN(c3ncc(F)cn3)C[C@H]21  -5.25%
58. CCN(C(=O)CN(C)C(c1cccc(F)c1)c1ccccn1)C1CC1 (stereo not drawn)  -5.47%
59. O=c1cc(Cn2ccnc2)nc2n1CCCN(Cc1ccco1)C2  -5.53%
60. CN(Cc1cnccn1)C(=O)Nc1cc(F)cc(N2CCCC2)c1  -5.64%
61. O=C(O)c1cc(NS(=O)(=O)c2cccc(Cl)c2F)ccc1Cl  -5.66%
62. Cc1cc(C(=O)Nc2ccc(CN3CCOCC3)cn2)n(C)n1  -5.67%
63. Cc1nc(CN2CCN(C(C)C(=O)NC3CCCC3)CC2)cs1 (stereo not drawn)  -5.82%
64. CC(C)(C)c1cc(CN2C[C@H]3CC[C@@H]2CN(Cc2ccccn2)C3)n[nH]1  -5.84%
65. Cc1cc(N2CCCCC2)c(C#N)c(C)n1  -5.91%
66. CCN(Cc1ccoc1)C(=O)NC1CCN(CC2CCCC2)CC1  -6.01%
67. COc1c(C2CCCN2CC(=O)Nc2cccnc2)c(C)nn1C (stereo not drawn)  -6.38%
68. CCc1nc(C)c(C(=O)N2CCCC(c3noc(C)n3)C2)s1 (stereo not drawn)  -6.51%
69. Cc1cc(CN2CCN(Cc3cnc4c(c3)c(C)nn4C)CC2)on1  -6.72%
70. Cc1cc(C)c(C(=O)N2CCOC(c3cccs3)C2)c(=O)[nH]1 (stereo not drawn)  -6.92%
71. COC(=O)N1CCC(NC(=O)Cn2cc(C)c3ccccc32)CC1  -7.09%
72. O=C(NCC1CCOC1)c1ccc(-c2ccccc2)[nH]c1=O (stereo not drawn)  -7.11%
73. CC(=O)N1CCC(Cc2ccc(-c3ccnn3C)nc2)CC1  -7.13%
74. N#CC(NC(=O)CC(F)(F)F)c1ccsc1 (stereo not drawn)  -7.23%
75. CCn1c(C)nc2cc(NC(=O)CC3CCCCO3)ccc21 (stereo not drawn)  -7.28%
76. CN1CCC(N(CCc2ccccc2)C(=O)c2cc[nH]c2)CC1  -7.32%
77. O=C1OCCN1CCNC(=O)C1(N2CCCCC2)Cc2ccccc2C1  -7.56%
78. COc1nc2ccn(CCc3cc(O)nc(C)n3)c(=O)c2cc1C#N  -7.61%
79. CNc1ncccc1CN1CCN2CCN(C)CC2C1 (stereo not drawn)  -7.61%
80. CN1CCN(Cc2noc(CC3CCc4ccccc43)n2)CC1 (stereo not drawn)  -7.61%
81. CC(O)CN(c1ccccc1)S(=O)(=O)c1cc(C(=O)O)cc2c1CCC2 (stereo not drawn)  -7.68%
82. CN(C)C(=O)CCNC(=O)Nc1sc2ccccc2c1Cl  -7.68%
83. O=C(NC(c1ccc(Cl)cc1)c1cccnc1)C1CC1 (stereo not drawn)  -7.72%
84. Cc1ocnc1C(=O)N1CCCC1c1ccc(C(=O)N2CCSCC2)s1 (stereo not drawn)  -7.81%
85. COCCNC(=O)N1CCN(C(=O)Cc2ccccc2F)CC1  -8.11%
86. CCn1ccnc1C1CCCN(c2nccc3ccccc23)C1 (stereo not drawn)  -8.19%
87. Cc1ccc(F)c(NC(=O)CCC(=O)N(C)Cc2cc(C3CC3)[nH]n2)c1  -8.19%
88. COCC1CC2(CCN(C(=O)c3ccc(OC)c(Cl)c3)CC2)CO1 (stereo not drawn)  -8.41%
89. CC(C(=O)NC1CC1)S(=O)(=O)c1cc2c(cc1Cl)OCCO2 (stereo not drawn)  -8.64%
90. CN(C)C(CNc1c(NCc2ccco2)c(=O)c1=O)c1ccccc1 (stereo not drawn)  -8.7%
91. CCc1nnc(SC2CCCN(c3cccc(F)c3)C2=O)n1C (stereo not drawn)  -8.7%
92. Cn1ncc2c1C(COCC1CC1)CN(Cc1ccncc1)C2 (stereo not drawn)  -8.73%
93. CN(C(=O)CCOc1ccccc1)C1CCN(CC2CCOC2)CC1 (stereo not drawn)  -8.86%
94. O=C(NCCC(O)c1ccoc1)Nc1cccs1 (stereo not drawn)  -9.28%
95. O=C(c1cc[nH]n1)N(Cc1ccccc1)CC1CCC1  -9.65%
96. O=C(NCc1ccccc1CN1CCCC1=O)Nc1nccs1  -9.69%
97. O=C(c1ccncc1)N1CCC2(CC1)C(=O)Nc1ccccc12  -10.1%
98. NC(=O)CCCNC(=O)c1cc(Br)c2c(c1)OCCO2  -10.4%
99. O=C(NCCC(O)c1cccs1)c1ccc(Br)o1 (stereo not drawn)  -10.7%
100. CNC(=O)C1CCCN(C(=O)C2CCC2)C1 (stereo not drawn)  -11.6%
101. Cc1nnc([C@@H]2C[C@H]3CN(C(=O)c4c(C)noc4C)C[C@H]3O2)[nH]1  -11.6%
102. CCOC(=O)CNC(=O)NCc1cccn1Cc1ccccc1  -13.4%
103. CC1(C)CC(N2Cc3nc(N4CCCC4)ncc3C2=O)CC(C)(C)N1  -13.5%
104. Cc1cnn(C2CN(CC(=O)NCC(C)C)C2)c1  -13.6%
105. CC(c1nc(C(C)(C)C)no1)N1CCN(c2ccc(C#N)cn2)CC1 (stereo not drawn)  -13.9%
106. Cc1ccnn1CC(=O)N1CCCN(C2Cc3ccccc3C2)CC1  -14.5%
107. COC1(CNC(=O)c2ccc(Cl)c(Cl)c2)CCSC1 (stereo not drawn)  -15%
108. COc1ncccc1CN1C[C@@H]2COC[C@]2(CNC(=O)c2ccno2)C1  -15.5%
109. Cc1noc(C)c1CCC(=O)N1CCCN(CC(N)=O)CC1  -16.1%
110. COc1ccc2c(C)nc(N3C[C@@H](C)O[C@@H](C)C3)nc2c1  -16.1%
111. CSc1nnc(CC2CCN(C(=O)Cc3ccncc3)CC2)n1C  -16.8%
112. CCSCCn1cc(-c2ncc[nH]2)nn1  -17.4%
113. CCn1nc(C)c2nc(C(C)C)nc(NCCCn3ccnc3)c21  -17.9%
